Data: patent US8497265B2, “Heteroaryloxyheterocyclyl compounds as PDE10 inhibitors” (Amgen Inc., priority 2010, dated 2013)

Biological target: PDE10 (Mus musculus, UniProt Q8CA95)
Assay: PDE10 enzyme inhibition (IMAP TR-FRET assay)
Assay type: biochemical
Settings: Table 8A
Experimental: MPDE10A7 Enzyme Activity and Inhibition
Enzyme Activity. An IMAP TR-FRET assay was used to analyze the enzyme activity (Molecular Devices Corp., Sunnyvale Calif.). 5 μL, of serial diluted PDE10A (BPS Bioscience, San Diego, Calif.) or tissue homogenate was incubated with equal volumes of diluted fluorescein labeled cAMP or cGMP for 60 min in 384-well polystyrene assay plates (Corning, Corning, N.Y.) at room temperature. After incubation, the reaction was stopped by adding 60 μL, of diluted binding reagents and was incubated for 3 hours to overnight at room temperature. The plates were read on an Envision (Perkin Elmer, Waltham, Mass.) for time resolved fluorescence resonance energy transfer. The data were analyzed with GraphPad Prism (La Jolla, Calif.).
Enzyme Inhibition. To check the inhibition profile, 5 μL of serial diluted compounds were incubated with 5 μL of diluted PDE10 enzyme (BPS Bioscience, San Diego, Calif.) or tissue homogenate in a 384-well polystyrene assay plate (Corning, Corning, N.Y.) for 30 min at room temperature. […] The reaction was stopped by adding 60 μL of diluted binding reagents and plates were read on an Envision (Perkin Elmer, Waltham, Mass.) for time resolved fluorescence resonance energy transfer. The data were analyzed with GraphPad Prism (La Jolla, Calif.).

Sequence of PDE10 (Q8CA95 whole entry, looked up): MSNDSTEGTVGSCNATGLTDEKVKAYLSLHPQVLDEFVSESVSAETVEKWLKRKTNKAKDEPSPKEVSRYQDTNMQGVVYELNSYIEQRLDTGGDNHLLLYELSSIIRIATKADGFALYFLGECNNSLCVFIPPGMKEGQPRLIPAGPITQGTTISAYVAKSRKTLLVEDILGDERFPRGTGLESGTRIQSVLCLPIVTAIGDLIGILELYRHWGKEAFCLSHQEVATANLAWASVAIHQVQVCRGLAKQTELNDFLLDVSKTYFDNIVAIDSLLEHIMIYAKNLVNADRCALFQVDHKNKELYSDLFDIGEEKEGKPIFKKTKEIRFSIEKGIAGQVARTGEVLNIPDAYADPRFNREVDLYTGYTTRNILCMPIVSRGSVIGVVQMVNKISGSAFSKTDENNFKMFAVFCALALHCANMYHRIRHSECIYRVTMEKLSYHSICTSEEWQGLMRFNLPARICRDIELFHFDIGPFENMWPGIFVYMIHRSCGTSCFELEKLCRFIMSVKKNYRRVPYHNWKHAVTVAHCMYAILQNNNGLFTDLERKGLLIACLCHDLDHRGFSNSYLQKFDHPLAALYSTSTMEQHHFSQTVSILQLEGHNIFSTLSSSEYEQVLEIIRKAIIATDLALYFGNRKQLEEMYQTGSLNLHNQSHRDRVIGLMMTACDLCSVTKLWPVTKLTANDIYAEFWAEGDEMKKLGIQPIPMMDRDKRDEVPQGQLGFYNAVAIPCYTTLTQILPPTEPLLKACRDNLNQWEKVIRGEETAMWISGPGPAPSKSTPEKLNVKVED

Question: How did the IC50 turn out when “1-(4-(3-((1-(quinolin-2-yl)azetidin-3-yl)oxy)pyrazin-2-yl)phenyl)ethanone [Example 10.26]” was run?
Answer: 0.0244 µM
